US10231453B2, “5-substituted imidazole derivatives” (BAYER CROPSCIENCE AKTIENGESELLSCHAFT, priority 2015, dated 2019)
Marks after values point to notes of the source that are not given here.

What was measured:
[1] = tested on: Puccinia recondita; assay: In vivo preventive test on Puccinia recondita (brown rust on wheat), Examples C and R3; details: Puccinia recondita, 264 h; 500 ppm of active ingredient; wheat, preventive spray, evaluated 11 days after inoculation; read-out: efficacy
[2] = tested on: Uromyces appendiculatus; assay: In vivo preventive test on Uromyces appendiculatus (bean rust), Examples G and R7; details: 264 h, 500 ppm of active ingredient, bean, preventive spray, evaluated 11 days after inoculation, read-out: efficacy
[3] = Measurement of LogP values by HPLC on reversed phase columns (EEC directive 79/831 Annex V.A8); type: physicochemical; details: for chromatographic logP: method [a]: LC-UV, acidic range, 0.1% formic acid in water and acetonitrile as eluent
Method: Measurement of Log P values was performed as outlined above.

[4] = tested on: Septoria tritici; assay: In vivo preventive test on Septoria tritici (leaf spot on wheat), Examples E, Q3 and R5; details: Zymoseptoria tritici, 576 h, 500 ppm of active ingredient; wheat, preventive spray, evaluated 24 days after inoculation; read-out: efficacy
[5] = tested on: Sphaerotheca fuliginea; assay: In vivo preventive test on Sphaerotheca fuliginea (powdery mildew on cucurbits), Examples F and R6; details: Podosphaera fuliginea, 360 h; 500 ppm of active ingredient; gherkin, preventive spray, evaluated 15 days after inoculation; read-out: efficacy
[6] = tested on: Pyrenophora teres; assay: In vivo preventive test on Pyrenophora teres (net blotch on barley), Examples D, Q2 and R4; details: Pyrenophora teres, 336 h, read-out: Efficacy in %; for pest or weed control at 100 ppm: Example R4, rate of application 100 ppm; for pest or weed control at 500 ppm: Example R4, rate of application 500 ppm
[7] = Table 2, compounds of formula (XVII)

SMILES | pest or weed control at 500 ppm [1] [%] | pest or weed control at 500 ppm [2] [%] | chromatographic logP ([3]; Table 1) | pest or weed control at 500 ppm [4] [%] | pest or weed control at 500 ppm [5] [%] | chromatographic logP [3, 7] | also measured
Cc1cncn1CC(O)(Cc1cccnc1Cl)C1(Cl)CC1 (stereo not shown) [Example I-10] | 80 to 89 | 90 to 100 | 1.22 |  |  |  | 
N#Cc1cncn1CC(O)(C(F)c1ccccc1Cl)C1(Cl)CC1 (stereo not shown) [Example I-24] | 80 to 89 | 90 to 100 | 2.82 | 90 to 100 | 90 to 100 |  | 
OC(Cn1cncc1Cl)(C(F)c1ccccc1F)C1(Cl)CC1 (stereo not shown) [Example I-28] | 80 to 89 | 70 to 79 | 2.01 | 80 to 89 | 90 to 100 |  | 
COc1cncn1CC(O)(Cc1ccccc1F)C1(Cl)CC1 (stereo not shown) [Example I-35] |  |  | 1.67 | 90 to 100 |  |  | 
OC(Cc1ccccc1F)(Cn1cncc1C1CC1)C1(Cl)CC1 (stereo not shown) [Example I-37] | 80 to 89 |  | 1.86 | 90 to 100 |  |  | 
N#Cc1cncn1CC(O)(Cc1cc(Br)ncc1Br)C1(Cl)CC1 (stereo not shown) [Example I-47] | 80 to 89 | 90 to 100 | 2.73 |  | 90 to 100 |  | 
N#Cc1cncn1CC(O)(Cc1ccncc1Cl)C1(Cl)CC1 (stereo not shown) [Example I-57] | 90 to 100 | 90 to 100 | 1.88 | 90 to 100 | 90 to 100 |  | 
N#Cc1cncn1CC(O)(Cc1cc(Cl)cc(Cl)c1)C1(Cl)CC1 (stereo not shown) [Example I-58] | 80 to 89 | 90 to 100 | 3.55 | 80 to 89 | 90 to 100 |  | 
OC(Cc1ccnc(Cl)c1Cl)(Cn1cncc1Cl)C1(Cl)CC1 (stereo not shown) [Example I-67] | 80 to 89 | 90 to 100 | 2.08 |  | 90 to 100 |  | 
Cc1ccc(CC(O)(Cn2cncc2Cl)C2(Cl)CC2)c(C)c1 (stereo not shown) [Example I-68] | 70 to 79 | 90 to 100 | 2.69 |  |  |  | 
OC(Cc1cc(Cl)nc(Cl)c1)(Cn1cncc1Cl)C1(Cl)CC1 (stereo not shown) [Example I-74] |  | 90 to 100 | 2.23 | 90 to 100 | 90 to 100 |  | 
Nc1cncn1CC(O)(Cc1ccccc1Cl)C1(Cl)CC1 (stereo not shown) [Example I-78] |  |  | 1.5 | 80 to 89 | 80 to 89 |  | 
N#Cc1cncn1CC(O)(Cc1ccc(F)c(F)c1F)C1CCC1 (stereo not shown) [Example I-104] | 90 to 100 | 90 to 100 | 2.78 | 90 to 100 | 90 to 100 |  | 
CC(C)C(O)(Cc1ccc(F)c(F)c1F)Cn1cncc1C#N (stereo not shown) [Example I-105] | 70 to 79 |  | 2.78 | 70 to 79 | 90 to 100 |  | 
N#Cc1cncn1CC(O)(Cc1ccc(F)c(F)c1F)CC1CC1 (stereo not shown) [Example I-106] | 80 to 89 | 90 to 100 | 2.73 | 90 to 100 | 90 to 100 |  | 
NC(=O)c1cncn1CC(O)(Cc1ccc(Cl)cc1F)C1CC1 (stereo not shown) [Example I-116] |  |  | 1.49 | 90 to 100 | 90 to 100 |  | 
N#Cc1cncn1CC(O)(Cc1ccc(Cl)cc1F)C1CCC1 (stereo not shown) [Example I-117] | 90 to 100 | 90 to 100 | 3.31 | 90 to 100 | 90 to 100 |  | 
CCOC(Cc1ccc(Cl)cc1F)(Cn1cncc1Cl)C1(Cl)CC1 (stereo not shown) [Example I-122] | 80 to 89 | 90 to 100 | 3.1 | 90 to 100 | 90 to 100 |  | 
C=CCOC(Cc1ccc(Cl)cc1F)(Cn1cncc1Cl)C1(Cl)CC1 (stereo not shown) [Example I-123] | 80 to 89 | 80 to 89 | 3.31 | 90 to 100 | 90 to 100 |  | 
N#Cc1cncn1CC(O)(Cc1ccccc1F)CC1CC1 (stereo not shown) [Example I-141] | 90 to 100 | 90 to 100 | 2.45 | 90 to 100 | 90 to 100 |  | 
O=C(Cc1ccccc1)c1cncn1CC(O)(Cc1ccccc1)C1(Cl)CC1 (stereo not shown) [Example I-169] | 70 to 79 | 70 to 79 | 3.56 | 70 to 79 | 90 to 100 |  | 
N#Cc1cncn1CC(=O)C1(Cl)CC1 [XVII-2, 1-[2-(1-chlorocyclopropyl)-2-oxoethyl]-1H-imidazole-5-carbonitrile] |  |  |  |  |  | 1.35 | 
N#Cc1cncn1CC(=O)C1CC1 [XVII-3] |  |  |  |  |  | 0.74 | 

SMILES | pest or weed control at 500 ppm [1] [%] | pest or weed control at 500 ppm [2] [%] | chromatographic logP ([3]; Table 1) | pest or weed control at 500 ppm [4] [%] | pest or weed control at 500 ppm [5] [%] | chromatographic logP [3, 7] | also measured
N#Cc1cncn1CC(=O)C1(F)CC1 [XVII-4] |  |  |  |  |  | 1.05 | 
O=C(Cn1cncc1F)C1(Cl)CC1 [XVII-5] |  |  |  |  |  | 0.32 | 
COC(=O)c1cncn1CC(=O)C1(Cl)CC1 [XVII-6] |  |  |  |  |  | 1.2 | 
CC(C)(C)C(=O)Cn1cncc1C#N [XVII-7] |  |  |  |  |  | 1.47 | 
CC(C)(Cl)C(=O)Cn1cncc1C#N [XVII-8] |  |  |  |  |  |  | LogP [3]: 1.65^[a]
N#Cc1cncn1CC(=O)C1(C#N)CC1 [XVII-9] |  |  |  |  |  | 0.9 | 
O=C(Cn1cncc1I)C1(Cl)CC1 [XVII-10] |  |  |  |  |  | 0.7 | 
CC(C)(F)C(=O)Cn1cncc1C#N [XVII-11] |  |  |  |  |  | 1.31 | 
N#Cc1cncn1CC(=O)CC1CC1 [XVII-12] |  |  |  |  |  | 1.27 | 
CC(C)(C)CC(=O)Cn1cncc1C#N [XVII-13] |  |  |  |  |  | 1.88 | 
CC(C)C(=O)Cn1cncc1C#N [XVII-14] |  |  |  |  |  | 1.14 | 
N#Cc1cncn1CC(=O)C1CCCC1 [XVII-15] |  |  |  |  |  | 1.57 | 
N#Cc1cncn1CC(=O)C1(F)CCCC1 [XVII-16] |  |  |  |  |  | 1.81 | 
N#Cc1cncn1CC(=O)C1CCC1 [XVII-17] |  |  |  |  |  | 1.26 | 
N#Cc1cncn1CC(=O)C1(Cl)CCC1 [XVII-18] |  |  |  |  |  | 1.86 | 
CCCCC(=O)Cn1cncc1C#N [XVII-19] |  |  |  |  |  | 1.6 | 
OC(Cc1ccccc1Cl)(Cn1cnc(Br)c1)C1(Cl)CC1 (stereo not shown) [drawing 106, reference compound] |  |  |  |  |  |  | pest or weed control at 100 ppm [6]: 0%; pest or weed control at 500 ppm [6]: 0%
N#Cc1cn(CC(O)(Cc2ccccc2Cl)C2(Cl)CC2)cn1 (stereo not shown) [drawing 108, reference compound] |  |  |  |  |  |  | pest or weed control at 100 ppm [6]: 0%; pest or weed control at 500 ppm [6]: 0%
C#Cc1cn(CC(O)(Cc2ccccc2F)C2(Cl)CC2)cn1 (stereo not shown) [drawing 110, reference compound] |  |  |  |  |  |  | pest or weed control at 100 ppm [6]: 0%; pest or weed control at 500 ppm [6]: 0%
OC(Cc1ccccc1F)(Cn1cnc(Cl)c1)C1(Cl)CC1 (stereo not shown) [drawing 112, reference compound] |  |  |  |  |  |  | pest or weed control at 100 ppm [6]: 0%; pest or weed control at 500 ppm [6]: 0%
OC(Cc1ccccc1F)(Cn1ccnc1Cl)C1(Cl)CC1 (stereo not shown) [drawing 113, reference compound] |  |  |  |  |  |  | pest or weed control at 100 ppm [6]: 0%; pest or weed control at 500 ppm [6]: 0%
N#Cc1cn(CC(O)(Cc2ccccc2F)C2(Cl)CC2)cn1 (stereo not shown) [drawing 121, reference compound] |  |  |  |  |  |  | pest or weed control at 100 ppm [6]: 0%; pest or weed control at 500 ppm [6]: 0%
